Tests used:
Orobanche cumana = test: Germinative activity on parasitic plants; type: in vivo; settings: counted after 4 days
Protocol: (§1) In this example, the germinative activity of the compounds in accordance with the invention (IIa) and (IIIb) and of the comparative compound GR24 was evaluated on the parasitic plants: Orobanche cumana, Orobanche minor, Striga hermonthica, Phelipanche ramosa (pv T and pv C).
(§2) The test protocol used was the following.
(§3) Seeds of Orobanche cumana Wallr. were collected from broomrapes parasitizing sunflower (Helianthus annuus L.), at Longeville-sur-mer, France, in 2009; seeds of clover broomrape (Orobanche minor Sm.) from a parasite of red clover (Trifolium pratense L.) were obtained from Professor K. Yoneyama (Utsunomiya University, Japan).
(§4) The seeds are stored dry in the dark at 25° C.
(§5) The compounds to be studied were resuspended in acetone at 10 mmol·l^−1, then diluted with water to 1 mmol·l^−1 (water/acetone; v/v; 99/1). Dilutions of 1×10^−3 mol·l^−1 to 1×10^−15 mol·l^−1 were then prepared in a water/acetone mixture (v/v; 99/1). Seeds of parasitic plants were surface-sterilized according to the protocol described in the publication by Vieira Dos Santos et al. (2003), then resuspended in sterile water (10 g·l^−1) and distributed on a 96-well plate (in a proportion of 50 μl, i.e. approximately 100 seeds per well). After preconditioning (7 days, 21° C., in the dark, plate hermetically sealed, except for the seeds of S. hermonthica, which were preconditioned at 30° C.), the compounds to be studied were added and the volumes adjusted to 100 μl with water (water/acetone; v/v; 999/1).
(§6) In a plate, a range of concentrations from 10^−13 mol·l^−1 to 10^−6 mol·l^−1 was applied for GR24 and (IIa) and from 10^−12 to 10^−5 mol·l^−1 for (IIIb). Controls were carried out with a water/acetone mixture (v/v; 999/1) and without seeds. The plates were incubated so as to allow germination (21° C., in the dark or 30° C. for Striga hermonthica.). After 4 days, the seeds which had germinated were counted under a stereomicroscope (SZX10, Olympus). The seeds were considered to have germinated when the radicle was sticking out of the seed tegument. Each germination test was repeated at least 3 times. For each compound tested, dose-response curves (g=f(c), where g is the germination percentage and c the concentration (mol·l^−1)), and the EC50 (median effective concentration) were modeled on the basis of a 4-parameter logistic curve calculated with SigmaPlot® 10.0.
(§7) The percentages of maximum germination induced by the compounds tested for each parasitic plant were determined.

Orobanche minor = test: Germinative activity on parasitic plants; type: in vivo; settings: counted after 4 days
Protocol: as §1, §2, §3, §4, §5, §6, §7

CC1=C(C)C(Sc2ccc(Cl)cc2)OC1=O (centres unmarked) [Compound (IIa), 5-((4-chlorophenyl)thio)-3,4-dimethylfuran-2(5H)-one]
Percentage of maximum germination induced (Orobanche cumana): no (no significant germination compared to the negative control (<2%))
Percentage of maximum germination induced (Orobanche minor): no (no significant germination compared to the negative control (<2%))

Source: patent US9532569B2 (INSTITUT NATIONAL DE LA RECHERCHE AGRONOMIQUE, priority 2012, dated 2017)
